Patent US20260364072A1, “METHODS FOR PROMOTING EXPANSION OF HUMAN CD34+ CELLS IN VIVO AND FOR PROMOTING NEURAL REGENERATION” (THE REGENTS OF THE UNIVERSITY OF CALIFORNIA, priority 2023, published 2026)
Where a name gives a salt, the structure may show the parent alone.

Legend:
solid tumors = details: cited from earlier work
hematologic malignancies = details: Phase 1, cited from earlier work
MDA-MB-231 cells = experiment: IVIS total flux in MDA-MB-231 transplanted mice; type: in vivo, human cells in Rag2 neonatal mice; details: 0 day after completing the dosing plan; compared to vehicle control
From the text: FIG. 5 graphically illustrates IVIS (In Vivo Imaging System) results of ADAR1-MDA-MB-231 transplanted Rag2 mouse models, and IVIS images were taken at 6 weeks after transplant (FIG. 5A), after two weeks of therapy (FIG. 5B), and one week after therapy was completed (FIG. 5C), as discussed in further detail in Example 5, below.
Ten thousand (10k) MDA-MB-231 cells were intrahepatically transplanted into Rag2 neonatal mice, then treated with fedratinib, rebecsinib, or a combination of fedratinib and rebecsinib. IVIS images were taken at 6 weeks after transplant (FIG. 5A), after two weeks of therapy (FIG. 5B), and one week after therapy was completed (FIG. 5C). The IVIS signals from the mice were graphed by groups.
The IVIS images of these mice were taken at 0 day after completing the dosing plan and are graphed by their total flux.

[1] = test system: ADAR1 and MCL1 transcripts; experiment: Comparative in vivo study with fedratinib; design: species or system human cells in mice; details: twice daily oral 60 mg/kg, two weeks
Experimental: Additional aliquots of CD34+ cells from bone marrow and/or spleens of treated and control animals were used for serial transplantation assays after Rebecsinib treatment, including engraftment studies and overall survival assays. In a separate cohort of animals, mice were treated with Fedratinib for two weeks (twice daily oral delivery at 60 mg/kg) as a positive control for modulation of ADAR1 expression and activity.^8

Compound: CC[C@H](O)[C@@H](C)[C@H]1O[C@@H]1C[C@@](C)(O)/C=C/C=C(\C)[C@H]1OC(=O)C[C@H](O)CC[C@@](C)(O)[C@@H](OC(=O)N2CCN(C3CCCCCC3)CC2)/C=C/[C@@H]1C [E7107]
- reversible optic neuritis (solid tumors; patients with solid tumors): 2 of 26
- stability (solid tumors; related to optic neuritis): compound instability

Compound: H3B-8800
- durable remissions (hematologic malignancies): not sufficiently potent to induce durable remissions
- red blood transfusion independence (hematologic malignancies; efficacy dependent on SRSF2 mutations): red blood transfusion independence in some patients

Compound: Cc1cnc(Nc2ccc(OCCN3CCCC3)cc2)nc1Nc1cccc(S(=O)(=O)NC(C)(C)C)c1 [fedratinib, N-tert-butyl-3-[(5-methyl2-{[4-(2-pyrrolidin-1-ylethoxy)phenyl]amino}pyrimidin-4-yl)amino]benzenesulfonamide dihydrochloride monohydrate]
- total flux (IVIS) (MDA-MB-231 cells): significantly decreased
- ADAR1 expression [1]: significantly reduced ADAR1 expression
- MCL1 splicing [1]: no alteration of MCL1 splicing
